We go through 27 compounds from patent US11912693B2, “Compounds for modulating S1P1 activity and methods of using the same” (TREVENA, INC., priority 2017, dated 2024).

Assay [1] has as its target T1, human sphingosine-1-phosphate receptor 1 (S1P1) (Homo sapiens (Human), UniProt P21453). Kind of assay: Inhibition of cAMP production (HTRF cAMP HiRange), S1P1 CHO-K1 cells. Format: cell-based. Particulars: for Emax: CHO-K1, efficacy (SPAN) normalized to fingolimod, read-out: hS1P1 cAMP SPAN; for hS1P1 cAMP pEC50: inhibition of cAMP production, S1P1 CHO-K1 cells. The gist of the method: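 CHO-K1 cells stably co-expressing human S1P1 (C-terminal Prolink tag) and EA-β-arrestin2 were grown in AssayComplete Media 6 at 37° C. and 5% CO2, plated, and incubated overnight. Agonist-driven inhibition of intracellular cAMP was read by TR-FRET with the HTRF cAMP HiRange kit on a PheraStar reader. Potency is pEC50, and efficacy (SPAN) is normalized to fingolimod.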
For orientation: Changes in cAMP serve as a functional read-out for many G protein-coupled receptors.
Target sequence in this assay (P21453 whole entry, looked up): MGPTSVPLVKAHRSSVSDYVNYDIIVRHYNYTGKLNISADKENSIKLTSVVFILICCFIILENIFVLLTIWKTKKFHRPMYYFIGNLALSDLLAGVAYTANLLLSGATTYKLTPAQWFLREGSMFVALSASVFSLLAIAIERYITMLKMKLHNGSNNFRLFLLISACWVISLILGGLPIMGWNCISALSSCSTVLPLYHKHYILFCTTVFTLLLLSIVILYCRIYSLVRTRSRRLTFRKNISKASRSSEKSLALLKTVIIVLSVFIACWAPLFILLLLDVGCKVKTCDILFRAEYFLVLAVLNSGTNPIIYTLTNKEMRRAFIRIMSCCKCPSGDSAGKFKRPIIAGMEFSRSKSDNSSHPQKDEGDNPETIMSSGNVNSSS

Assay [2] has as its target T1, human sphingosine-1-phosphate receptor 1 (S1P1). Description: β-Arrestin2 recruitment assay (PathHunter), S1P1 CHO-K1 cells. Format: cell-based. The note with it: for Emax: CHO-K1, efficacy (SPAN) normalized to fingolimod, read-out: hS1P1 B-arrestin2 SPAN; for hS1P1 B-arrestin2 pEC50: β-arrestin2 recruitment, S1P1 CHO-K1 cells. The gist of the method:
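Enzyme-fragment complementation read-out: agonist-driven β-arrestin2 binding to ProLink-tagged human S1P1 in stable CHO-K1 cells restores β-galactosidase, measured 1 h at room temperature after a 60 min 37° C. compound incubation. Potency as pEC50, efficacy relative to fingolimod (SPAN).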
Target sequence in this assay (P21453 whole entry, looked up): as above
Target sequence in this assay (P32121 whole entry partner, looked up): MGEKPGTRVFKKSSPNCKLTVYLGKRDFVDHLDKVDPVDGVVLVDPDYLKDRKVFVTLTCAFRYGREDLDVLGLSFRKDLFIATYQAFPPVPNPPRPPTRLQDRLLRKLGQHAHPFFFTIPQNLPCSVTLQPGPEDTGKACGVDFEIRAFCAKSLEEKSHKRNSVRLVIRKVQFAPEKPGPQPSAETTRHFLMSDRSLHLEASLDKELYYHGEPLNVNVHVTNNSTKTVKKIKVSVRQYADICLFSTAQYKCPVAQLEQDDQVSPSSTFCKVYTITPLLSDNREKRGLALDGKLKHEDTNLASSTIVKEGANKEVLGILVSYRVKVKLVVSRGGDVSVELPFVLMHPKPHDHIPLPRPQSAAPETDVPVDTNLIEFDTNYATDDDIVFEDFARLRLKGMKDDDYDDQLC
On the technique in general: Arrestin recruitment assays detect the binding of arrestin to an activated receptor.

Molecules are shown by their SMILES.

With `CC(C)n1nnc2cc(-c3nc4ccncc4o3)ccc21` [Compound 503, 2-(1-isopropyl-1H-benzo[d][1,2,3]triazol-5-yl)oxazolo[5,4-c]pyridine], in assay [1], the Emax was more than 75% and the “hS1P1 cAMP pEC50” value was less than 6.5. In assay [2], the Emax is more than 75% and the “hS1P1 B-arrestin2 pEC50” value is reported as less than 5.

On to `CC(C)n1nnc2cc(-c3nc(-c4cccs4)co3)ccc21` [Compound 459, 1-(propan-2-yl)-5-[4-(thiophen-2-yl)-1,3-oxazol-2-yl]-1H-1,2,3-benzotriazole], for which, in assay [1], the Emax is more than 75% and the “hS1P1 cAMP pEC50” value is less than 6.5. In assay [2], the Emax was more than 75% and the “hS1P1 B-arrestin2 pEC50” value is less than 5.

Turning to `COc1ccccc1-c1noc(-c2ccc3c(c2)nnn3C2CCOCC2)n1` [Compound 231, 5-[3-(2-methoxyphenyl)-1,2,4-oxadiazol-5-yl]-1-(oxan-4-yl)-1H-1,2,3-benzotriazole], in assay [1], the Emax is less than 75% and the “hS1P1 cAMP pEC50” value is on record as less than 6.5. Further, in assay [2], the Emax is less than 75% and the “hS1P1 B-arrestin2 pEC50” value is less than 5.

For `CCC1(CC)CC(=O)c2cc(-c3nc(-c4ccc[nH]4)no3)ccc2O1` [Compound 464, 6-(3-(1H-pyrrol-2-yl)-1,2,4-oxadiazol-5-yl)-2,2-diethylchroman-4-one], the “hS1P1 cAMP pEC50” value in assay [1] is more than 6.5. The “hS1P1 B-arrestin2 pEC50” value in assay [2] is reported as less than 5.

With `CCC1(CC)CC(=O)c2cc(-c3nc(-c4cnc[nH]4)no3)ccc2O1` [Compound 466, 6-(3-(1H-imidazol-5-yl)-1,2,4-oxadiazol-5-yl)-2,2-diethylchroman-4-one], the “hS1P1 cAMP pEC50” value in assay [1] is less than 6.5. Moreover, the “hS1P1 B-arrestin2 pEC50” value in assay [2] is less than 5.

Turning to `CCC1(CC)CC(=O)c2cc(-c3nc(-c4cncc(OC)c4)no3)ccc2O1` [Compound 311, 2,2-diethyl-6-(3-(5-methoxypyridin-3-yl)-1,2,4-oxadiazol-5-yl)chroman-4-one], in assay [1], the “hS1P1 cAMP pEC50” value was less than 6.5. Moreover, the “hS1P1 B-arrestin2 pEC50” value in assay [2] is listed as less than 5.

`CC(C)n1nnc2cc(-c3nc(-c4cccnc4)no3)ccc21` [Compound 165, 1-(propan-2-yl)-5-[3-(pyridin-3-yl)-1,2,4-oxadiazol-5-yl]-1H-1,2,3-benzotriazole]: the “hS1P1 cAMP pEC50” value in assay [1] is listed as less than 6.5. Further, the “hS1P1 B-arrestin2 pEC50” value in assay [2] is given as less than 5.

Turning to `COc1cccc2oc(-c3ccc4c(c3)nnn4CC(C)C)nc12` [Compound 450, 2-(1-isobutyl-1H-benzo[d][1,2,3]triazol-5-yl)-4-methoxybenzo[d]oxazole], in assay [1], the Emax is more than 75% and the “hS1P1 cAMP pEC50” value is given as more than 6.5. Further, in assay [2], the Emax is more than 75% and the “hS1P1 B-arrestin2 pEC50” value was more than 5.

As to `COc1ccc(-c2noc(-c3ccc4c(c3)nnn4C3CCCC3)n2)cc1C(F)(F)F` [Compound 197, 1-cyclopentyl-5-{3-[4-methoxy-3-(trifluoromethyl)phenyl]-1,2,4-oxadiazol-5-yl}-1H-1,2,3-benzotriazole], in assay [1], the Emax was less than 75% and the “hS1P1 cAMP pEC50” value is less than 6.5. In assay [2], the Emax was less than 75% and the “hS1P1 B-arrestin2 pEC50” value is listed as less than 5.

On to `CCC1(CC)CC(=O)c2cc(-c3nc(-c4cnccc4C)no3)ccc2O1` [Compound 549, 2,2-diethyl-6-(3-(4-methylpyridin-3-yl)-1,2,4-oxadiazol-5-yl)chroman-4-one], for which the “hS1P1 cAMP pEC50” value in assay [1] is more than 6.5. In addition, in assay [2], the “hS1P1 B-arrestin2 pEC50” value is on record as more than 5.

Take `Cc1nccnc1-c1nc(-c2ccc3c(c2)nnn3C(C)(C)CO)no1` [Compound 641, 2-methyl-2-(5-(5-(3-methylpyrazin-2-yl)-1,2,4-oxadiazol-3-yl)-1H-benzo[d][1,2,3]triazol-1-yl)propan-1-ol]: in assay [1], the Emax was less than 75% and the “hS1P1 cAMP pEC50” value was less than 6.5. In assay [2], the Emax is less than 75% and the “hS1P1 B-arrestin2 pEC50” value is reported as less than 5.

With `CC1(C)CCC2(CC1)CC(=O)c1cc(-c3nc(-c4ccncc4)no3)ccc1O2` [Compound 254, 4′,4′-dimethyl-6-[3-(pyridin-4-yl)-1,2,4-oxadiazol-5-yl]-3,4-dihydrospiro[1-benzopyran-2,1′-cyclohexane]-4-one], in assay [1], the Emax is less than 75% and the “hS1P1 cAMP pEC50” value is listed as more than 6.5. For the same compound, in assay [2], the Emax is less than 75% and the “hS1P1 B-arrestin2 pEC50” value is listed as less than 5.

As to `CCC1(CC)CC(=O)c2cc(-c3nc(-c4cccs4)no3)ccc2N1` [Compound 591, 2,2-diethyl-6-(3-(thiophen-2-yl)-1,2,4-oxadiazol-5-yl)-2,3-dihydroquinolin-4(1H)-one], the “hS1P1 cAMP pEC50” value in assay [1] is given as more than 6.5. For the same compound, the “hS1P1 B-arrestin2 pEC50” value in assay [2] is given as more than 5.

Consider `COc1ccccc1-c1noc(-c2ccc3c(c2)nnn3C(C)C)n1` [Compound 286, 5-(1-isopropyl-1H-benzo[d][1,2,3]triazol-5-yl)-3-(2-methoxyphenyl)-1,2,4-oxadiazole], for which, in assay [1], the Emax was more than 75% and the “hS1P1 cAMP pEC50” value was more than 6.5. Besides, in assay [2], the Emax was more than 75% and the “hS1P1 B-arrestin2 pEC50” value was more than 5.

As to `COc1ccccc1-c1nnc(-c2ccc3c(c2)c(=O)on3C)o1` [Compound 340, 5-[5-(2-methoxyphenyl)-1,3,4-oxadiazol-2-yl]-1-methyl-1,3-dihydro-2,1-benzoxazol-3-one], the “hS1P1 cAMP pEC50” value in assay [1] is on record as less than 6.5. Moreover, the “hS1P1 B-arrestin2 pEC50” value in assay [2] is on record as less than 5.

As to `Cc1ccncc1-c1noc(-c2ccc3nnn(C(C)C)c3c2)n1` [Compound 264, 6-[3-(4-methylpyridin-3-yl)-1,2,4-oxadiazol-5-yl]-1-(propan-2-yl)-1H-1,2,3-benzotriazole], in assay [1], the Emax is less than 75% and the “hS1P1 cAMP pEC50” value was less than 6.5. Also, in assay [2], the Emax is less than 75% and the “hS1P1 B-arrestin2 pEC50” value is less than 5.

For the compound `Brc1ccccc1-c1nc(-c2ccc3c(c2)nnn3C2CCCCC2)no1` [Compound 115, 5-(2-bromophenyl)-3-(1-cyclohexyl-1H-benzo[d][1,2,3]triazol-5-yl)-1,2,4-oxadiazole], in assay [1], the Emax is more than 75% and the “hS1P1 cAMP pEC50” value is listed as more than 6.5. In assay [2], the Emax was more than 75% and the “hS1P1 B-arrestin2 pEC50” value is recorded as more than 5.

With `Cc1ccsc1-c1noc(-c2ccc3c(c2)nnn3CC2CC2)n1` [Compound 239, 1-(cyclopropylmethyl)-5-[3-(3-methylthiophen-2-yl)-1,2,4-oxadiazol-5-yl]-1H-1,2,3-benzotriazole], in assay [1], the Emax is less than 75% and the “hS1P1 cAMP pEC50” value is reported as less than 6.5. In assay [2], the Emax is less than 75% and the “hS1P1 B-arrestin2 pEC50” value is less than 5.

`COc1cccc(-c2nc(-c3ccc4c(c3)nnn4C(C)C)no2)c1` [Compound 299, 3-(1-isopropylbenzotriazol-5-yl)-5-(3-methoxyphenyl)-1,2,4-oxadiazole]: in assay [1], the Emax is less than 75% and the “hS1P1 cAMP pEC50” value was less than 6.5. Moreover, in assay [2], the Emax is more than 75% and the “hS1P1 B-arrestin2 pEC50” value is less than 5.

As to `CC(C)n1ccc2nc(-c3nc(-c4ccccc4Br)cs3)ccc21` [Compound 412, 4-(2-bromophenyl)-2-(1-isopropyl-1H-pyrrolo[3,2-b]pyridin-5-yl)thiazole], the “hS1P1 cAMP pEC50” value in assay [1] is less than 6.5. Also, the “hS1P1 B-arrestin2 pEC50” value in assay [2] is less than 5.

With `COc1ccccc1-c1noc(-c2ccc3c(c2)NC(=O)CN3)n1` [Compound 614, 7-[3-(2-methoxyphenyl)-1,2,4-oxadiazol-5-yl]-1,2,3,4-tetrahydroquinoxalin-2-one], the “hS1P1 cAMP pEC50” value in assay [1] was less than 6.5. Besides, the “hS1P1 B-arrestin2 pEC50” value in assay [2] is less than 5.

Consider `CC(C)n1nnc2cc(-c3ncc(-c4cccc(F)c4)s3)ccc21` [Compound 110, 5-(3-fluorophenyl)-2-(1-isopropyl-1H-benzo[d][1,2,3]triazol-5-yl)thiazole], for which, in assay [1], the Emax is less than 75% and the “hS1P1 cAMP pEC50” value was less than 6.5. Also, in assay [2], the Emax is less than 75% and the “hS1P1 B-arrestin2 pEC50” value is listed as less than 5.

Consider `CCC1(CC)CC(=O)c2cc(-c3nc(-c4ccc5nonc5c4)no3)ccc2O1` [Compound 500, 6-[3-(2,1,3-benzoxadiazol-5-yl)-1,2,4-oxadiazol-5-yl]-2,2-diethyl-3,4-dihydro-2H-1-benzopyran-4-one], for which the “hS1P1 cAMP pEC50” value in assay [1] is recorded as less than 6.5. Also, the “hS1P1 B-arrestin2 pEC50” value in assay [2] is given as less than 5.

For `CCC1(CC)CC(=O)c2cc(-c3nsc(-c4cccnc4)n3)ccc2O1` [Compound 137, 2,2-diethyl-6-(5-(pyridin-3-yl)-1,2,4-thiadiazol-3-yl)chroman-4-one], in assay [1], the Emax is more than 75% and the “hS1P1 cAMP pEC50” value was more than 6.5. For the same compound, in assay [2], the Emax is more than 75% and the “hS1P1 B-arrestin2 pEC50” value is listed as less than 5.

For the compound `CCC1(CC)CC(=O)c2cc(-c3nc(-c4ccc(NC(C)=O)cc4)no3)ccc2O1` [Compound 209, N-(4-(5-(2,2-diethyl-4-oxochroman-6-yl)-1,2,4-oxadiazol-3-yl)phenyl)acetamide], in assay [1], the Emax was more than 75% and the “hS1P1 cAMP pEC50” value is given as more than 6.5. In addition, in assay [2], the Emax is more than 75% and the “hS1P1 B-arrestin2 pEC50” value is more than 5.

For `Cc1ccsc1-c1nc(-c2ccc3c(c2)nnn3CC(C)(C)CO)no1` [Compound 524, 2,2-dimethyl-3-(5-(5-(3-methylthiophen-2-yl)-1,2,4-oxadiazol-3-yl)-1H-benzo[d][1,2,3]triazol-1-yl)propan-1-ol], the “hS1P1 cAMP pEC50” value in assay [1] was more than 6.5. The “hS1P1 B-arrestin2 pEC50” value in assay [2] is on record as more than 5.

On to `Cc1cccc2nc(-c3ccc4c(c3)nnn4CC(C)C)oc12` [Compound 449, 2-(1-isobutyl-1H-benzo[d][1,2,3]triazol-5-yl)-7-methylbenzo[d]oxazole], for which the “hS1P1 cAMP pEC50” value in assay [1] is recorded as less than 6.5. Further, in assay [2], the “hS1P1 B-arrestin2 pEC50” value was less than 5.
